Patent US20190125896A1, “ANTI-INFECTIVE COMPOSITIONS COMPRISING PHYTOGLYCOGEN NANOPARTICLES” (MIREXUS BIOTECHNOLOGIES INC., priority 2016, published 2019)
Where two headings read alike, the source gives them in different places.

How the values were obtained:
C. utilis ATCC9950 = test: Sensitization to antibiotics: MIC in medium supplemented with phytoglycogen; format: cell-based; settings: Candida utilis
Procedure: (§1) MIC assays as defined in Example 15 were performed in sterile and untreated 96 well microtitre plates according to the broth micro-dilution technique described in either the Clinical and Laboratory Standards Institute document M07-A9: Methods for Dilution Antimicrobial Susceptibility Tests for Bacteria that Grow Aerobically; Approved Standard and document M27-A2 Reference Method for Broth Dilution Antifungal Susceptibility Testing of Yeasts; Approved Standard—Second Edition, with the exception that, where indicated, medium was additionally supplemented with native or cationized phytoglycogen. Assessments done using C. utilis ATCC9950, B. subtilis 168 and E. coli AB264 employed native or cationized phytoglycogen at concentrations ⅛, ¼, ½ their respective MIC values for cationized phytoglycogen. Assessments of the opportunistic pathogen P. aeruginosa PAO1 were made at final in-assay concentrations of 0.5, 1 or 10 mg native or cationized phytoglycogen.ml^−1. Experiments were performed as in-assay duplicates, and were repeated a minimum of three times (n=6).
(§2) MIC assays were performed in duplicate within each experiment and were repeated a minimum three times to confirm the data (n=6). MIC values with a four-fold or greater change relative to the non-supplemented medium MIC represent a statistically-significant change in MIC value. Only those antibiotic-cationized phytoglycogen combinations which caused a four-fold change relative to the non-supplemented medium MIC were deemed as indicative of resulting in potentiation (MIC value was less), or tolerance (MIC value increased).

Candida utilis ATCC9950 = test: MIC of amphotericin B-phytoglycogen conjugate, modified broth microdilution; format: cell-based; settings: 35° C.
Procedure: The activity of the amphotericin B-phytoglycogen conjugate (PHG-AMB) was assayed against a yeast, Candida utilis ATCC9950, using a modified broth microdilution assay (CLSI M27-A2; Example 15). RPMI 1640 medium (Sigma-Aldrich; Canada), containing no sodium bicarbonate, supplemented with 0.165 M MOPS and adjusted to a pH of 7.0, was used for the assay. Stocks of 1600 μg AMB/ml DMSO were stored at −80° C. and diluted prior to use. 500 μg PHG-AMB.ml^−1 RPMI 1640 was prepared fresh on the day of assay. Briefly, doubling dilutions of 16 μg AMB.ml^−1 RPMI 1640 and 500 μg PHG-AMB.ml^−1 RPMI 1640 were prepared by serial two-fold dilution in RPMI 1640. Controls comprised AMB supplemented with phytoglycogen adjusted to mimic the changing concentration of PHG-AMB in the wells. Negative growth control wells contained sterile medium. Positive growth control wells contained medium or medium supplemented with phytoglycogen. […] Assays were performed as in duplicate replicate with a minimum of three independent replicates.

B. subtilis 168 = test: Sensitization to antibiotics: MIC in medium supplemented with phytoglycogen; format: cell-based; settings: Bacillus subtilis; for fold-change reduction in MIC, CP0.125: cationized phytoglycogen at 0.125 of its MIC; for fold-change reduction in MIC, CP0.25: cationized phytoglycogen at 0.25 of its MIC; for fold-change reduction in MIC, CP0.5: cationized phytoglycogen at half-strength of its MIC
P. aeruginosa PAO1 = test: as above; format: cell-based, Pseudomonas aeruginosa; settings: for ↓ Fold-change in MIC (cationized phytoglycogen) MIC.5 mg/ml: 0.5 mg cationized phytoglycogen · ml^−1 Mueller-Hinton Broth; for ↓ Fold-change in MIC (cationized phytoglycogen) MIC1 mg/ml: 1 mg cationized phytoglycogen · ml^−1 Mueller-Hinton Broth; for ↓ Fold-change in MIC (cationized phytoglycogen) MIC10 mg/ml: 10 mg cationized phytoglycogen · ml^−1 Mueller-Hinton Broth
Procedure: as §1, §2

E. coli AB264 = test: as above; format: cell-based; settings: Escherichia coli; for fold-change reduction in MIC, CP0.125: cationized phytoglycogen at 0.125 of its MIC; for fold-change reduction in MIC, CP0.25: cationized phytoglycogen at 0.25 of its MIC; for fold-change reduction in MIC, CP0.5: cationized phytoglycogen at half-strength of its MIC
[1] = tested on: P. aeruginosa PAO1 biofilm; test: Biofilm eradication: 20 h biofilms treated with antibiotic and cationized phytoglycogen; format: cell-based, Pseudomonas aeruginosa; settings: 24 h, medium alone
Procedure: Biofilm growth and treatments were performed in sterile 96 well polystyrene plates. Sterile solutions of gamma-irradiated cationized phytoglycogen was prepared by reconstitution and dilution as required in sterile Mueller-Hinton broth. P. aeruginosa PAO1 stocks were revived by sub-culturing P. aeruginosa PAO1 (37° C., 150 rpm, 16-18 h) in Mueller-Hinton broth (Oxoid; Fisher Scientific, Canada). The inoculum was prepared immediately prior to use by diluting in sterile Mueller-Hinton broth to a final in-assay cell density of 5×10^5 CFU.ml^−1. 100 μl of this solution was transferred to wells and incubated (37° C., 150 rpm). Sterile broth was the negative growth control. At 20 h, plates were transferred to a biological safety cabinet, well contents were gently aspirated and the wells rinsed with sterile 0.9% (wt/vol) NaCl. […] Positive growth controls contained inoculated medium, non-supplemented or with 1 or 10 mg cationized phytoglycogen.ml^−1. Plates were incubated at 37° C. for a further 24 h, after which biofilms were quantitated as previously described. Experiments were done in quadruplicate replicate and repeated three times (n=12).

[2] = Pseudomonas aeruginosa, PAO1, P. aeruginosa, non-supplemented Mueller-Hinton Broth, read-out: MIC
[3] = P. aeruginosa, non-supplemented Mueller-Hinton Broth

Molecule | fold-change reduction in MIC, CP0.125 (B. subtilis 168) | fold-change reduction in MIC, CP0.25 (B. subtilis 168) | fold-change reduction in MIC, CP0.5 (B. subtilis 168) | ↓ Fold-change in MIC (cationized phytoglycogen) MIC.5 mg/ml (P. aeruginosa PAO1; P. aeruginosa) | ↓ Fold-change in MIC (cationized phytoglycogen) MIC1 mg/ml (P. aeruginosa PAO1; P. aeruginosa) | ↓ Fold-change in MIC (cationized phytoglycogen) MIC10 mg/ml (P. aeruginosa PAO1; P. aeruginosa) | MIC (P. aeruginosa PAO1; [2]) [µg/mL] | fold-change reduction in MIC, CP0.125 (E. coli AB264) | fold-change reduction in MIC, CP0.25 (E. coli AB264) | fold-change reduction in MIC, CP0.5 (E. coli AB264) | also measured
C[C@@H]1[C@H](O)[C@@H](C)/C=C/C=C/C=C/C=C/C=C/C=C/C=C/[C@H](O[C@@H]2O[C@H](C)[C@@H](O)[C@H](N)[C@@H]2O)C[C@@H]2O[C@](O)(C[C@@H](O)C[C@@H](O)[C@H](O)CC[C@@H](O)C[C@@H](O)CC(=O)O[C@H]1C)C[C@H](O)[C@H]2C(=O)O [amphotericin B] |  |  |  |  |  |  |  |  |  |  | fold-change reduction in MIC, CP0.125 (C. utilis ATCC9950; cationized phytoglycogen at 0.125 of its MIC): 1-2 fold; fold-change reduction in MIC, CP0.25 (C. utilis ATCC9950; cationized phytoglycogen at 0.25 of its MIC): 1 fold; fold-change reduction in MIC, CP0.5 (C. utilis ATCC9950; cationized phytoglycogen at half-strength of its MIC): ↓4 fold; MIC (Candida utilis ATCC9950; RPMI 1640, 48 h): 0.5 μg AMB.ml^−1; MIC (Candida utilis ATCC9950; RPMI 1640 supplemented with phytoglycogen, 48 h): 0.5 μg AMB.ml^−1
CC1(C)S[C@@H]2[C@H](NC(=O)[C@H](N)c3ccccc3)C(=O)N2[C@H]1C(=O)O [ampicillin] | 1 fold | 1 fold | 2 fold | ↓ 8 fold | ↓ 8-16 fold | 2 fold | 1020 | 1-2 fold | 1-2 fold | 1-2 fold | 
CC1(C)S[C@@H]2[C@H](NC(=O)C(C(=O)O)c3ccccc3)C(=O)N2[C@H]1C(=O)O (stereo partly shown) [carbenicillin] | 1 fold | 2 fold | ↓4-8 fold | ↓ 16-32 fold | ↓ 32 fold | ↓ 8-16 fold | 64 | 1-2 fold | ↓4-8 ^ fold | ↓8-16^ fold | 
CC(C)(O/N=C(\C(=O)N[C@@H]1C(=O)N2C(C(=O)[O-])=C(C[n+]3ccccc3)CS[C@H]12)c1csc(N)n1)C(=O)O [ceftazidime] |  |  |  | ↓ 8 fold | ↓ 32-64 fold | ↓ 4-8 fold | 2 |  |  |  | 
O=C(N[C@H](CO)[C@H](O)c1ccc([N+](=O)[O-])cc1)C(Cl)Cl [chloramphenicol] | 1 fold | ↓2-4 fold |  | ↓ 4 fold | ↓ 8 fold | 2 fold | 64 | 1-2 fold | 1-2 fold | 1-2 fold | 
O=C(O)c1cn(C2CC2)c2cc(N3CCNCC3)c(F)cc2c1=O [ciprofloxacin] |  |  |  |  |  |  |  |  |  |  | change in biofilm of 20 h biofilms ([1]; at the MIC): no change in biofilm; reduction of biofilm ([1]; four-fold the MIC): 73%; reduction of biofilm ([1]; two-fold the MIC): 64%
CC[C@H]1OC(=O)[C@H](C)[C@@H](O[C@H]2C[C@@](C)(OC)[C@@H](O)[C@H](C)O2)[C@H](C)[C@@H](O[C@@H]2O[C@H](C)C[C@H](N(C)C)[C@H]2O)[C@](C)(O)C[C@@H](C)C(=O)[C@H](C)[C@@H](O)[C@]1(C)O [erythromycin] | 1-2 fold | ↓2-4 fold | ↓2-4 fold | ↓ 4 fold | ↓ 8 fold | 1-2 fold | 128 | 1-2 fold | 1-2 fold | 1-2 fold | 
CCn1cc(C(=O)O)c(=O)c2ccc(C)nc21 [nalidixic acid] |  |  |  | ↓ 4-32 fold | ↓ 16-32 fold | ↓ 8-16 fold | 1020 |  |  |  | 
CO[C@@H]1[C@@H](OC(N)=O)[C@@H](O)[C@H](Oc2ccc3c(O)c(NC(=O)c4ccc(O)c(CC=C(C)C)c4)c(=O)oc3c2C)OC1(C)C [novobiocin] |  |  |  | ↓ 4-16 fold | ↓ 16-32 fold | ↓ 4 fold | 2050 |  |  |  | 
CC1(C)S[C@@H]2[C@H](NC(=O)Cc3ccccc3)C(=O)N2[C@H]1C(=O)O [penicillin G] | 1-2 fold | ↓8-16 fold | ↓16-32 fold | ↓ 16-32 fold | ↓64-128 fold | ↓ 2-4 fold |  | 1-2 fold | ↓4-8 ^ fold | ↓8 fold | MIC (P. aeruginosa PAO1; [3]): 12500 µg/mL
CN(C)[C@@H]1C(O)=C(C(N)=O)C(=O)[C@@]2(O)C(O)=C3C(=O)c4c(O)cccc4[C@@](C)(O)[C@H]3C[C@@H]12 [tetracycline] |  |  |  | ↓ 8 fold | ↓ 8 fold | 2 fold | 16 to 32 |  |  |  | 
CN[C@H](CC(C)C)C(=O)N[C@H]1C(=O)N[C@@H](CC(N)=O)C(=O)N[C@H]2C(=O)N[C@H]3C(=O)N[C@H](C(=O)N[C@H](C(=O)O)c4cc(O)cc(O)c4-c4cc3ccc4O)[C@H](O)c3ccc(c(Cl)c3)Oc3cc2cc(c3O[C@@H]2O[C@H](CO)[C@@H](O)[C@H](O)[C@H]2O[C@H]2C[C@](C)(N)[C@H](O)[C@H](C)O2)Oc2ccc(cc2Cl)[C@H]1O [vancomycin] | 1 fold | 1 fold | 1-2 fold | ↓ 2-4 fold | ↓ 16 fold | ↓ 4 fold |  | 1-2 fold | ↓2-4 ^ fold | ↓4-16^ fold | MIC (P. aeruginosa PAO1; Pseudomonas aeruginosa, PAO1, read-out: MIC (μg · ml^−1)): 1020 µg/mL
gentamicin | 1-2 fold | ↓2-4 fold | ↓4-8 fold | 2 fold | 2 fold | 1 fold |  | 1-2 fold | 2 fold | ↓4-8 ^ fold | MIC (P. aeruginosa PAO1; [3]): 0.5 µg/mL
polymyxin B [polymixin B] |  |  |  | 1-2 fold | ↓ 2-4 fold | 2 fold |  |  |  |  | MIC (P. aeruginosa PAO1; [3]): 0.125 to 0.25 µg/mL
